# Source: patent publication US20170088520A1, “DEUBIQUITINASE INHIBITORS” (PharmAkea, Inc., priority 2014, published 2017)
# What was measured:
# Format in all cases: cell-based
# [1] = system: Mcl-1 expression in cells (NCI-H929, Z138, MM.1S, A-375); assay: Analysis of Mcl-1 expression by Western blotting; conditions: compound tested at 5 μM; Western blot
# How it was run: (§1)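 NCI-H929, Z138, MM.1S and A-375 cells were treated with compounds at 5 μM, and lysates were Western blotted with anti-Mcl-1 and anti-PARP antibodies, quantified by infrared fluorescence. Activity is a significant drop in Mcl-1 and the appearance of cleaved PARP, each relative to vehicle-treated cells.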
# [2] = system: PARP cleavage in cells (NCI-H929, Z138, MM.1S, A-375); assay: Analysis of PARP cleavage by Western blotting; conditions: compound tested at 5 μM; Western blot
# How it was run: as §1
# [3] = target: T1, DUB activity in cells (NCI-H929, Z138, MM.1S, A375) (Homo sapiens, UniProt Q93008); assay: HA-Ubiquitin-Vinylsulfone (HA-Ub-VS) cell labeling assay; conditions: compound tested at 5 μM; HA-Ub-VS labeling of USP9x in cells
# T1 construct: endogenous in cells; host or cells: NCI-H929, Z138, MM.1S, A375
# T1 sequence (Q93008 whole entry): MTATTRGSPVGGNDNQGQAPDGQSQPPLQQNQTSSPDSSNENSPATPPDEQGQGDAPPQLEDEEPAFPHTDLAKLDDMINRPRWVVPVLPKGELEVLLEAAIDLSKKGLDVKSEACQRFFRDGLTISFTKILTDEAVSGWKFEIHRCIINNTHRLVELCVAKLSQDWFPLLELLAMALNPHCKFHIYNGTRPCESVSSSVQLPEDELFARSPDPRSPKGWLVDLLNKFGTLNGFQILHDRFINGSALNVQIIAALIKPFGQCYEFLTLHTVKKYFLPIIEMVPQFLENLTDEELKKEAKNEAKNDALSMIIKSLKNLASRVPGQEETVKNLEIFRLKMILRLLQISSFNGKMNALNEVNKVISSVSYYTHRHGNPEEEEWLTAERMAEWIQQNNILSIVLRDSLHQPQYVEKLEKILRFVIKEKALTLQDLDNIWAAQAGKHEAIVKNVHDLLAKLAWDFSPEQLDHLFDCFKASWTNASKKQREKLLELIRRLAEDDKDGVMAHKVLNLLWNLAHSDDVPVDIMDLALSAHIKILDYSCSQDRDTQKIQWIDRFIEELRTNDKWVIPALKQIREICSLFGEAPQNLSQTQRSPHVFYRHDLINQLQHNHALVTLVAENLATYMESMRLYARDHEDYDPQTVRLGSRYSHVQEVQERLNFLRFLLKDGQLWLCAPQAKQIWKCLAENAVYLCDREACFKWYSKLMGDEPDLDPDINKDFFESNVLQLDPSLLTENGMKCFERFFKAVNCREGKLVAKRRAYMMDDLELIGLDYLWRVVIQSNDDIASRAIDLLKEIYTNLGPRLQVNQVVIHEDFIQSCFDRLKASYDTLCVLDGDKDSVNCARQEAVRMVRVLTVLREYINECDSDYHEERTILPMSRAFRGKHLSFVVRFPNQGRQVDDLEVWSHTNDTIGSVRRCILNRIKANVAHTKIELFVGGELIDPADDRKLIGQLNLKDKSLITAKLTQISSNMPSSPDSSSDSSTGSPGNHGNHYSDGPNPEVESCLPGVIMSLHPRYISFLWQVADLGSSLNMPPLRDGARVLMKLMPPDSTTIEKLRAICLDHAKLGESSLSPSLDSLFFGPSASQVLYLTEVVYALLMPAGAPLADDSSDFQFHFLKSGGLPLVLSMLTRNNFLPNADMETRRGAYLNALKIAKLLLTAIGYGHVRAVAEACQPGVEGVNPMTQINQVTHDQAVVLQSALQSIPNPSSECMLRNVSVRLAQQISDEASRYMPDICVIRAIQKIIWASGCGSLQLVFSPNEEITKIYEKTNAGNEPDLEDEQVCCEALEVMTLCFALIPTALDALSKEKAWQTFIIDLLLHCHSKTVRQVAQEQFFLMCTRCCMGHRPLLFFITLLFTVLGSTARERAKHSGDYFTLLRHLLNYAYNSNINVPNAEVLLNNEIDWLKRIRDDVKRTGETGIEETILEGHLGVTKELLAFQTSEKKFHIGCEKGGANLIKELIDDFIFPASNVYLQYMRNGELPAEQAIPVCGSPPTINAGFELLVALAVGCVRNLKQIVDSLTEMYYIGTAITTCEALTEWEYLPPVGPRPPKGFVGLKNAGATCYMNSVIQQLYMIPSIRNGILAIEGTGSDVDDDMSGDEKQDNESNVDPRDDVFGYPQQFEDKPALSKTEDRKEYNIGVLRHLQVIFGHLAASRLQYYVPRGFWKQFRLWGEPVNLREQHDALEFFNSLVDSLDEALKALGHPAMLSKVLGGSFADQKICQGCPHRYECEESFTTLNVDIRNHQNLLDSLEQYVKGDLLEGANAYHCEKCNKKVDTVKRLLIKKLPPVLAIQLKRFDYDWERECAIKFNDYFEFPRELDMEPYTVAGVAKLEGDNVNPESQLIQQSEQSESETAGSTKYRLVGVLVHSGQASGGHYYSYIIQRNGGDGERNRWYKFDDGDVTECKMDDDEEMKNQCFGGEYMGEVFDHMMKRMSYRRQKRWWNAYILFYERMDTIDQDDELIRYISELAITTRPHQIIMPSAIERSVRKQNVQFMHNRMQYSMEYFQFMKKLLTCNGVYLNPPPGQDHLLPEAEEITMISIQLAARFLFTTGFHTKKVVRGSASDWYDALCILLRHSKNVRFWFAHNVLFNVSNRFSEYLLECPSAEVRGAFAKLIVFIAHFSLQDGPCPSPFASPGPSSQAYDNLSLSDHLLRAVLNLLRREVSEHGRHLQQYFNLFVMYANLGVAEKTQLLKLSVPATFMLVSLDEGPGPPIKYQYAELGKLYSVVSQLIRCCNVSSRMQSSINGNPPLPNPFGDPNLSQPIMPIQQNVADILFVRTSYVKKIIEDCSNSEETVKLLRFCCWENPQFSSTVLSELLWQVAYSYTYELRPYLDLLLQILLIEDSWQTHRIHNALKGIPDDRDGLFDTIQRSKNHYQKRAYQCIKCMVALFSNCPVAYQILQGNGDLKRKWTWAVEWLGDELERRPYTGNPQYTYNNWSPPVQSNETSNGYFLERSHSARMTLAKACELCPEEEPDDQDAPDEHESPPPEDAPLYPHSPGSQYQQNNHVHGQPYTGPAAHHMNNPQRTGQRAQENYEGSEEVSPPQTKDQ
# How it was run: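 NCI-H929, Z138, MM.1S or A375 cells (1–2×10^6) treated 2–6 h at 37 °C with compound in 0.5% DMSO, here 5 μM. Lysates labeled with HA-Ub-VS for 15–60 min at 37 °C. Labeled DUBs resolved by SDS-PAGE and quantified by anti-HA and anti-β-actin immunoblot with infrared detection.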
Structure (SMILES),inhibition at 5 µM [1],PARP cleavage % Inhibition [2],inhibition at 5 µM [3]
"CN(C)C(=O)c1ccc(C2(NC(=O)/C(C#N)=C/c3ncc(Br)cc3Br)CCCC2)cc1 [Compound 66, (E)-4-(1-(2-cyano-3-(3,5-dibromopyridin-2-yl)acrylamido)cyclopentyl)-N,N-dimethylbenzamide]",≥ 75%,A (A is ≧75% inhibition),50 to 75%
"N#C/C(=C\c1cccc(C2CC2)n1)C(=O)NC1(c2ccc(-c3cccnc3)cc2)CCCC1 [Compound 67, (E)-2-cyano-3-(6-cyclopropylpyridin-2-yl)-N-(1-(4-(pyridin-3-yl)phenyl)cyclopentyl)acrylamide]",≥ 75%,A (A is ≧75% inhibition),50 to 75%
"N#C/C(=C\c1ncc(Br)cc1Br)C(=O)NC1(c2ccc(-c3ccc(C(F)(F)F)nc3)cc2)CCCC1 [Compound 68, (E)-2-cyano-3-(3,5-dibromopyridin-2-yl)-N-(1-(4-(6-(trifluoromethyl)pyridin-3-yl)phenyl)cyclopentyl)acrylamide]",≥ 75%,A (A is ≧75% inhibition),≥ 75%
"N#C/C(=C\c1ncc(Br)cc1Br)C(=O)NC1(c2ccc(-c3ccc(N4CCCCC4)nc3)cc2)CCCC1 [Compound 69, (E)-2-cyano-3-(3,5-dibromopyridin-2-yl)-N-(1-(4-(6-(piperidin-1-yl)pyridin-3-yl)phenyl)cyclopentyl)acrylamide]",< 25%,D (D is <25% inhibition),< 25%
"N#C/C(=C\c1cccc(-c2ccc3[nH]ncc3c2)n1)C(=O)NC1(c2ccccc2)CCCC1 [Compound 70, (E)-3-(6-(1H-indazol-5-yl)pyridin-2-yl)-2-cyano-N-(1-phenylcyclopentyl) acrylamide]",≥ 75%,A (A is ≧75% inhibition),50 to 75%
"N#C/C(=C\c1cccc(-c2cccc(C(=O)O)c2)n1)C(=O)NC1(c2ccccc2)CCCC1 [Compound 71, (E)-3-(6-(2-cyano-3-oxo-3-((1-phenylcyclopentyl)amino)prop-1-en-1-yl)pyridin-2-yl)benzoic acid]",< 25%,D (D is <25% inhibition),< 25%
"COc1ccc(COc2ccc(C3(NC(=O)/C(C#N)=C/c4cccc(Br)n4)CCCC3)cc2)cc1 [Compound 72, (E)-3-(6-bromopyridin-2-yl)-2-cyano-N-(1-(4-((4-methoxybenzyl)oxy)phenyl)cyclopentyl)acrylamide]",≥ 75%,A (A is ≧75% inhibition),50 to 75%
"N#C/C(=C\c1cccc(Br)n1)C(=O)NC1(c2ccc(-c3cccnc3)cc2)CCCC1 [Compound 73, (E)-3-(6-bromopyridin-2-yl)-2-cyano-N-(1-(4-(pyridin-3-yl)phenyl)cyclopentyl)acrylamide]",≥ 75%,A (A is ≧75% inhibition),≥ 75%
"N#C/C(=C\c1cccc(Br)n1)C(=O)NC1(c2ccc(C#CC3(O)COC3)cc2)CCCC1 [Compound 75, (E)-3-(6-bromopyridin-2-yl)-2-cyano-N-(1-(4-((3-hydroxyoxetan-3-yl)ethynyl)phenyl)cyclopentyl)acrylamide]",≥ 75%,A (A is ≧75% inhibition),50 to 75%
"N#C/C(=C\c1cccc(Br)n1)C(=O)NC1(c2ccc(C#CC3(O)CCCC3)cc2)CCCC1 [Compound 76, (E)-3-(6-bromopyridin-2-yl)-2-cyano-N-(1-(4-((1-hydroxycyclopentyl)ethynyl)phenyl)cyclopentyl)acrylamide]",≥ 75%,A (A is ≧75% inhibition),≥ 75%
